# Results reported in patent US7282469B2, “4-trifluoromethylpyrazolyl-substituted pyridines and pyrimidines” (Bayer CropScience GmbH, priority 2002, dated 2007).
# What was measured:
# Veronica persica = experiment: Weed plant herbicidal activity, pre-emergence; assay type: in vivo; details: 20 g of active substance per hectare, visual scoring after 3 to 4 weeks
# Text: (§1) 1. Weed Plant Herbicidal Activity and Crop Plant Tolerance, Pre-emergence
# (§2) Seeds of monocotyledonous and dicotyledonous weed plants and also of crop plants are placed in sandy loam soil in cardboard pots and are covered with soil. The compounds of the invention, formulated as wettable powders or emulsifiable concentrates, are then applied as an aqueous suspension or emulsion, respectively, and at different dosages to the surface of the covering soil at an application rate of 600 to 800 l of water per ha (converted). Following treatment, the pots are placed in a greenhouse and kept under good growth conditions for the weeds. Visual scoring of the plant damage or emergence damage is made after the test plants have emerged, after an experimental period of 3 to 4 weeks, in comparison with untreated controls. In this case, for example, the compounds of the invention from examples nos. 1.7 and 4.1 at a dosage of 320 g of active substance per hectare display a 100% activity against Digitaria sanguinalis, Setaria viridis and Amaranthus retroflexus. At the same dosage these compounds of the invention cause no damage to the crop plants Oryza sativa (rice) and Glycine max (soybean). The compound of the invention from example no. […] At the same dosage this compound of the invention causes no damage to the crop plants Oryza sativa (rice), Zea mays (maize) and Glycine max (soybean). At a dosage of 320 g of active substance per hectare, the compound of the invention from example no.
# Amaranthus retroflexus = experiment: Weed plant herbicidal activity, pre-emergence; assay type: in vivo; details: visual scoring after 3 to 4 weeks
# Text: as §1, §2
# Alopecurus myosuroides = experiment: Weed plant herbicidal activity, pre-emergence; assay type: in vivo; details: 20 g of active substance per hectare, visual scoring after 3 to 4 weeks
# Text: as §1, §2
# Setaria viridis = experiment: Weed plant herbicidal activity, pre-emergence; assay type: in vivo; details: visual scoring after 3 to 4 weeks
# Text: as §1, §2
# Digitaria sanguinalis = experiment: Weed plant herbicidal activity, pre-emergence; assay type: in vivo; details: 320 g of active substance per hectare, visual scoring after 3 to 4 weeks
# Text: as §1, §2
# Oryza sativa (rice) = experiment: Crop plant tolerance, pre-emergence; assay type: in vivo
# Text: as §1, §2
# Zea mays (maize) = experiment: Crop plant tolerance, pre-emergence; assay type: in vivo; details: 20 g of active substance per hectare
# Text: as §1, §2
# Glycine max (soybean) = experiment: Crop plant tolerance, pre-emergence; assay type: in vivo
# Text: as §1, §2
# [1] = 20 g of active substance per hectare
# [2] = 320 g of active substance per hectare
smiles,measurement,setting,value
"Cc1cnc(-n2cc(C(F)(F)F)cn2)nc1Oc1cccc(C(F)(F)F)c1 [Example 1.7, 5-methyl-4-(3-trifluoromethylphenoxy)-2-(4-trifluoromethyl-1H-1-pyrazolyl)pyrimidine]",activity against Veronica persica,Veronica persica,at least 90%
same,activity against Amaranthus retroflexus,Amaranthus retroflexus; [1],at least 90%
same,activity against Amaranthus retroflexus,Amaranthus retroflexus; [2],100%
same,activity against Alopecurus myosuroides,Alopecurus myosuroides,at least 90%
same,activity against Setaria viridis,Setaria viridis; [1],at least 90%
same,activity against Setaria viridis,Setaria viridis; [2],100%
same,activity against Digitaria sanguinalis,Digitaria sanguinalis,100%
same,damage to the crop plant Oryza sativa (rice),Oryza sativa (rice); [1],no damage
same,damage to the crop plant Oryza sativa (rice),Oryza sativa (rice); [2],no damage
same,damage to the crop plant Zea mays (maize),Zea mays (maize),no damage
same,damage to the crop plant Glycine max (soybean),Glycine max (soybean); [1],no damage
same,damage to the crop plant Glycine max (soybean),Glycine max (soybean); [2],no damage
same,melting point,,103 to 105 °C
